The source of these data is patent publication US8399480B2, “Hydroxymethyl pyrrolidines as beta 3 adrenergic receptor agonists” (Merck Sharp & Dohme Corp., priority 2008, dated 2013).

Where only a bound is given, the exact number is not on record here.

The target in one assay is T1, human β3 adrenergic receptor (Homo sapiens, UniProt P13945).
T1 construct: expressed in transfected cells; host or cells: Chinese hamster ovary (CHO) cells, stably transfected
T1 sequence (P13945 whole entry): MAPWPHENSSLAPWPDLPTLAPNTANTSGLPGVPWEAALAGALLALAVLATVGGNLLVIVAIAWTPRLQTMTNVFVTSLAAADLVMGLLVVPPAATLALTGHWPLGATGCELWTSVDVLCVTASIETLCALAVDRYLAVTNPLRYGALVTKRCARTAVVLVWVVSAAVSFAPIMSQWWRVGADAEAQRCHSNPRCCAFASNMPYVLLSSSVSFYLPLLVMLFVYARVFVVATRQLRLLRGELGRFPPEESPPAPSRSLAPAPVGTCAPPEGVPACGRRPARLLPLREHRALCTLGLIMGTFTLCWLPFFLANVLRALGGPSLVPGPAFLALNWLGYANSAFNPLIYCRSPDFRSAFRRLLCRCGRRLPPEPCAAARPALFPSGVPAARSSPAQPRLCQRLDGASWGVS
Description: Functional assay: cAMP production (LANCE TR-FRET) in CHO cells stably transfected with cloned β3 adrenergic receptor. The class given is cell-based. The conditions noted are these: Table 4; human β3 functional activity; read-out: Human β Binding. The protocol: Chinese hamster ovary (CHO) cells, stably transfected with the cloned β-adrenergic receptor (β1, β2 or β3) are harvested after 3 days of subculturing. Harvesting of cells is done with Enzyme-free Dissociation Media (Specialty Media). Cells are then counted and resuspended in assay buffer (Hank's Balanced salt solution supplemented with 5 mM HEPES, 0.1% BSA) containing a phosphodiesterase inhibitor (IBMX, 0.6 mM). The reaction is initiated by mixing 6,000 cells in 6 μL with 6 μL Alexa Fluor labeled cAMP antibody (LANCE™ kit) which is then added to an assay well containing 12 μL of compound (diluted in assay buffer to 2× final concentration). The reaction proceeds for 30 min at room temperature and is terminated by the addition of 24 μL detection buffer (LANCE™ kit). The assay plate is then incubated for 1 h at room temperature and time-resolved fluorescence measured on a Perkin Elmer Envision reader or equivalent. The unknown cAMP level is determined by comparing fluorescence levels to a cAMP standard curve.
The non-selective, full agonist β-adrenergic ligand isoproterenol is used at all three receptors to determine maximal stimulation. […] Data are analyzed using Microsoft Excel and Graphpad Prism or an internally developed data analysis software package.
`O=C(Cn1nc2ccccc2n1)Nc1ccc(C[C@@H]2CC[C@H]([C@H](O)c3ccccc3)N2)cc1` [Example 5]: the EC50 fell in the range of 1 to 10 nM. On to `O=C(Cn1ncc2ccccc21)Nc1ccc(C[C@@H]2CC[C@H]([C@H](O)c3ccccc3)N2)cc1` [Example 6], for which the EC50 was in the range of 1 to 10 nM. `O=C(Nc1ccc(C[C@@H]2CC[C@H]([C@H](O)c3ccccc3)N2)cc1)c1ccccc1N1CCCC1` [Example 7]: the EC50 lay in the range of 101 to 1000 nM. Turning to `Cc1csc(CC(=O)Nc2ccc(C[C@@H]3CC[C@H]([C@H](O)c4ccccc4)N3)cc2)n1` [Example 8], the EC50 was in the range of 11 to 100 nM. Consider `Cc1nc(C)c(CC(=O)Nc2ccc(C[C@@H]3CC[C@H]([C@H](O)c4ccccc4)N3)cc2)s1` [Example 9], for which the EC50 is 101 to 1000 nM. Take `Cc1nc(C)c(CC(=O)Nc2ccc(C[C@@H]3CC[C@H]([C@H](O)c4ccccc4)N3)cc2)s1` [Example 10]: the EC50 was in the range of 1 to 10 nM.

Staying with this assay, now noted: Table 5; read-out: Human β3 Functional.
For the compound `CC(C(=O)Nc1ccc(C[C@@H]2CC[C@H]([C@H](O)c3ccccc3)N2)cc1)c1cnccn1` (single isomer, unassigned) [Example 206], the EC50 fell in the range of 1 to 10 nM. As to `CC(C(=O)Nc1ccc(C[C@@H]2CC[C@H]([C@H](O)c3ccccc3)N2)cc1)c1cnccn1` (single isomer, unassigned) [Example 207], the EC50 is 1 to 10 nM. Turning to `CC(C(=O)Nc1ccc(C[C@@H]2CC[C@H]([C@H](O)c3ccccc3)N2)cc1)N1CCOC1=O` (single isomer, unassigned) [Example 208], the EC50 lay within 1 to 10 nM. `CC(C(=O)Nc1ccc(C[C@@H]2CC[C@H]([C@H](O)c3ccccc3)N2)cc1)N1CCOC1=O` (single isomer, unassigned) [Example 209]: the EC50 was in the range of 11 to 100 nM. Regarding `COc1ncncc1C(C)C(=O)Nc1ccc(C[C@@H]2CC[C@H]([C@H](O)c3ccccc3)N2)cc1` (single isomer, unassigned) [Example 212], the EC50 was in the range of 11 to 100 nM. Regarding `COc1ncncc1C(C)C(=O)Nc1ccc(C[C@@H]2CC[C@H]([C@H](O)c3ccccc3)N2)cc1` (single isomer, unassigned) [Example 213], the EC50 was 11 to 100 nM.

In the case of `CC(Oc1cccnn1)C(=O)Nc1ccc(C[C@@H]2CC[C@H]([C@H](O)c3ccccc3)N2)cc1` (single isomer, unassigned) [Example 214], the EC50 is 101 to 1000 nM. For `CC(Oc1cccnn1)C(=O)Nc1ccc(C[C@@H]2CC[C@H]([C@H](O)c3ccccc3)N2)cc1` (single isomer, unassigned) [Example 215], the EC50 lay in the range of 11 to 100 nM. Regarding `CCC(C(=O)Nc1ccc(C[C@@H]2CC[C@H]([C@H](O)c3ccccc3)N2)cc1)n1nccn1` (single isomer, unassigned) [Example 216], the EC50 lay in the range of 1 to 10 nM. On the same count and under the same terms, in the case of `CCC(C(=O)Nc1ccc(C[C@@H]2CC[C@H]([C@H](O)c3ccccc3)N2)cc1)n1nccn1` (single isomer, unassigned) [Example 217] it was 1 to 10 nM.

Take `CCC(C(=O)Nc1ccc(C[C@@H]2CC[C@H]([C@H](O)c3ccccc3)N2)cc1)n1cccn1` (single isomer, unassigned) [Example 218]: the EC50 was in the range of 1 to 10 nM. On to `CCC(C(=O)Nc1ccc(C[C@@H]2CC[C@H]([C@H](O)c3ccccc3)N2)cc1)n1cccn1` (single isomer, unassigned) [Example 219], for which the EC50 fell in the range of 1 to 10 nM.

Consider `COCCC(C(=O)Nc1ccc(C[C@@H]2CC[C@H]([C@H](O)c3ccccc3)N2)cc1)n1cccn1` (single isomer, unassigned) [Example 223], for which the EC50 lay within 1 to 10 nM.

For `COCCC(C(=O)Nc1ccc(C[C@@H]2CC[C@H]([C@H](O)c3ccccc3)N2)cc1)n1cccn1` (single isomer, unassigned) [Example 224], the EC50 was in the range of 11 to 100 nM.

Still in this assay, the particulars now being: Table 6; read-out: Human β3 Functional.
With `Nc1nc2c(s1)CCCC2C(=O)Nc1ccc(CC2CCC(C(O)c3ccccc3)N2)cc1` (single isomer, unassigned) [Example 227], the EC50 is 101 to 1000 nM. With `Nc1nc2c(s1)CCCC2C(=O)Nc1ccc(CC2CCC(C(O)c3ccccc3)N2)cc1` (single isomer, unassigned) [Example 228], the EC50 lay in the range of 1000 to 3000 nM. For the compound `Cc1nc2c(s1)CCCC2C(=O)Nc1ccc(CC2CCC(C(O)c3ccccc3)N2)cc1` (single isomer, unassigned) [Example 231], the EC50 was in the range of 101 to 1000 nM. The same measure, in the same setting: in the case of `Cc1nc2c(s1)CCCC2C(=O)Nc1ccc(CC2CCC(C(O)c3ccccc3)N2)cc1` (single isomer, unassigned) [Example 232] it was 1000 to 3000 nM.

The assay is the same for the next values; noted with them: Table 10; β3AR-cAMP; read-out: Human β3 Functional.
As for `Nc1nc2c(s1)CCC2C(=O)Nc1ccc(CC2CCC(C(O)c3cccc(F)c3)N2)cc1` (single isomer, unassigned) [Example 276], the EC50 was in the range of 11 to 100 nM. With `Nc1nc2c(s1)CCC2C(=O)Nc1ccc(CC2CCC(C(O)c3cccc(F)c3)N2)cc1` (single isomer, unassigned) [Example 277], the EC50 was less than 1 nM.

The same assay, now with this note: Table 11; read-out: Human β3 Functional.
Take `Nc1nc2c(s1)CCC2C(=O)Nc1ccc(CC2CCC(C(O)c3ccc(F)cc3)N2)cc1` (single isomer, unassigned) [Example 282]: the EC50 lay in the range of 11 to 100 nM. As to `Nc1nc2c(s1)CCC2C(=O)Nc1ccc(CC2CCC(C(O)c3ccc(F)cc3)N2)cc1` (single isomer, unassigned) [Example 283], the EC50 is less than 1 nM.

Take `CC(C(=O)Nc1ccc(CC2CCC(C(O)c3ccc(F)cc3)N2)cc1)c1cscn1` (single isomer, unassigned) [Example 285]: the EC50 lay in the range of 11 to 100 nM. As for `CC(C(=O)Nc1ccc(CC2CCC(C(O)c3ccc(F)cc3)N2)cc1)c1cscn1` (single isomer, unassigned) [Example 286], the EC50 is less than 1 nM.

Staying with this assay, now noted: Table 12; read-out: Human β3 Functional.
With `Nc1nc2c(s1)CCC2C(=O)Nc1ccc(CC2CCC(C(O)c3ccc(F)c(F)c3)N2)cc1` (single isomer, unassigned) [Example 288], the EC50 fell in the range of 11 to 100 nM. Same read-out and setting: then `Nc1nc2c(s1)CCC2C(=O)Nc1ccc(CC2CCC(C(O)c3ccc(F)c(F)c3)N2)cc1` (single isomer, unassigned) [Example 289], with less than 1 nM; and `Nc1nc2c(s1)CCC2C(=O)Nc1ccc(CC2CCC(C(O)c3ccc(F)c(F)c3)N2)cc1` (single isomer, unassigned) [Example 291], with 11 to 100 nM; and `Nc1nc2c(s1)CCC2C(=O)Nc1ccc(CC2CCC(C(O)c3ccc(F)c(F)c3)N2)cc1` (single isomer, unassigned) [Example 292], with less than 1 nM.

Staying with this assay, now noted: given as a range; cAMP, CHO cells; read-out: human β3 functional activity.
For `CC(C(=O)Nc1ccc(C[C@@H]2CC[C@H]([C@H](O)c3cccc(F)c3)N2)cc1)c1cscn1` (single isomer, unassigned) [Example 274], the EC50 was 11 to 100 nM.

For `CC(C(=O)Nc1ccc(C[C@@H]2CC[C@H]([C@H](O)c3cccc(F)c3)N2)cc1)c1cscn1` (single isomer, unassigned) [Example 275], the EC50 was less than 1 nM.

As for `Nc1nc(CC(=O)Nc2ccc(C[C@H]3CC[C@H]([C@H](O)c4ccccc4)N3)cc2)cs1` [Example 3, 2-(2-Amino-1,3-thiazol-4-yl)-N-[4-({(2R,5R)-[(R)hydroxy(phenyl)methyl]pyrrolidinyl}methyl)phenyl]acetamide], the EC50 fell in the range of 11 to 100 nM.

The same assay, now with this note: human β3 functional activity, shown as ranges; Table 13; read-out: Human β3 Functional.
Turning to `Nc1nc2c(s1)CCC2C(=O)Nc1ccc(CC2CCC(C(O)c3cccc(Cl)c3)N2)cc1` (single isomer, unassigned) [Example 294], the EC50 is 11 to 100 nM. For the compound `Nc1nc2c(s1)CCC2C(=O)Nc1ccc(CC2CCC(C(O)c3cccc(Cl)c3)N2)cc1` (single isomer, unassigned) [Example 295], the EC50 was less than 1 nM. For the compound `O=C(Nc1ccc(CC2CCC(C(O)c3cccc(Cl)c3)N2)cc1)C1CCc2sc(Br)nc21` (single isomer, unassigned) [Example 298], the EC50 is less than 1 nM. Regarding `O=C(Nc1ccc(CC2CCC(C(O)c3cccc(Cl)c3)N2)cc1)C1CCc2sc(Br)nc21` (single isomer, unassigned) [Example 299], the EC50 was in the range of 11 to 100 nM.

Regarding `O=C(Nc1ccc(CC2CCC(C(O)c3cccc(Cl)c3)N2)cc1)C1CCc2sc(F)nc21` (single isomer, unassigned) [Example 300], the EC50 lay in the range of 1 to 10 nM. `O=C(Nc1ccc(CC2CCC(C(O)c3cccc(Cl)c3)N2)cc1)C1CCc2sc(F)nc21` (single isomer, unassigned) [Example 301]: the EC50 was 11 to 100 nM. For `CC(C(=O)Nc1ccc(CC2CCC(C(O)c3cccc(Cl)c3)N2)cc1)c1cscn1` (single isomer, unassigned) [Example 302], the EC50 lay within 1 to 10 nM. As to `CC(C(=O)Nc1ccc(CC2CCC(C(O)c3cccc(Cl)c3)N2)cc1)c1cscn1` (single isomer, unassigned) [Example 303], the EC50 was 11 to 100 nM.

Still in this assay, the particulars now being: human β3 functional activity, shown as ranges; Table 14; read-out: Human β3 Functional.
For `Nc1nc2c(s1)CCC2C(=O)Nc1ccc(CC2CCC(C(O)c3cccc(F)c3)N2)cc1` (single isomer, unassigned) [Example 306], the EC50 is less than 1 nM. With `Nc1nc2c(s1)CCC2C(=O)Nc1ccc(CC2CCC(C(O)c3cccc(Cl)c3)N2)cc1` (single isomer, unassigned) [Example 310], the EC50 is less than 1 nM. The same measure, in the same setting: then `Nc1nc2c(s1)CCC2C(=O)Nc1ccc(CC2CCC(C(O)c3cccc(Cl)c3)N2)cc1` (single isomer, unassigned) [Example 311], with 1 to 10 nM.
